Test results from article PMC4560413, “Ethyl Pyruvate Emerges as a Safe and Fast Acting Agent against Trypanosoma brucei by Targeting Pyruvate Kinase Activity” (PLoS ONE, 2015).

Target: T1, pyruvate kinase (PK-1 from rabbit muscle) (Oryctolagus cuniculus, UniProt P11974)
T1 construct: gene PKM; purified PK-1 from rabbit muscle
Assay: enzyme kinetics, ATP production by luminescence (CellTiter-Glo), competitive model fit
Assay type: biochemical

T1 sequence (P11974 2-531): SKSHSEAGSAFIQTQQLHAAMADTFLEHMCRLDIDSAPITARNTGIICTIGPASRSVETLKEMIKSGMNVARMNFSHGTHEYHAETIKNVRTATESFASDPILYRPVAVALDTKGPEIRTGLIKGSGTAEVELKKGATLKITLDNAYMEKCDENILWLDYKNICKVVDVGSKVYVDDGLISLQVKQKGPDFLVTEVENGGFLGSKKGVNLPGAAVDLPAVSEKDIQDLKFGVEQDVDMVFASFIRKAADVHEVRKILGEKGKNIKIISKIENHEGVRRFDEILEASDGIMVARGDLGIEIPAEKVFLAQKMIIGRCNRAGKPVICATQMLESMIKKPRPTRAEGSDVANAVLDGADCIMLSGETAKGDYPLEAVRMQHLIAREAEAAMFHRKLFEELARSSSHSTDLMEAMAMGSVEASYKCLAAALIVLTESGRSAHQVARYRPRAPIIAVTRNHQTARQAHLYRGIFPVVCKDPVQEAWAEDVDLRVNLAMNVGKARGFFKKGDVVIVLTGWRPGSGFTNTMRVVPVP

## CCOC(=O)C(C)=O [ethyl pyruvate]
  Ki: 3 ± 0.29 mM
